Target: T1, KIT D820E (Homo sapiens, UniProt P10721, D820E)
T1 construct: purchased Thermo Fisher Scientific (Life Technologies) SelectScreen
Test: SelectScreen LanthaScreen
Assay type: binding
Details: read-out: % displacement
In short: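 Percent values come from Thermo SelectScreen profiling of NU5455, combining activity and binding assays. CSF1R was run in Z'LYTE format at Km app ATP, and CAMK1 in Adapta format with ATP listed at 10.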

T1 sequence (P10721 26-976 D820E): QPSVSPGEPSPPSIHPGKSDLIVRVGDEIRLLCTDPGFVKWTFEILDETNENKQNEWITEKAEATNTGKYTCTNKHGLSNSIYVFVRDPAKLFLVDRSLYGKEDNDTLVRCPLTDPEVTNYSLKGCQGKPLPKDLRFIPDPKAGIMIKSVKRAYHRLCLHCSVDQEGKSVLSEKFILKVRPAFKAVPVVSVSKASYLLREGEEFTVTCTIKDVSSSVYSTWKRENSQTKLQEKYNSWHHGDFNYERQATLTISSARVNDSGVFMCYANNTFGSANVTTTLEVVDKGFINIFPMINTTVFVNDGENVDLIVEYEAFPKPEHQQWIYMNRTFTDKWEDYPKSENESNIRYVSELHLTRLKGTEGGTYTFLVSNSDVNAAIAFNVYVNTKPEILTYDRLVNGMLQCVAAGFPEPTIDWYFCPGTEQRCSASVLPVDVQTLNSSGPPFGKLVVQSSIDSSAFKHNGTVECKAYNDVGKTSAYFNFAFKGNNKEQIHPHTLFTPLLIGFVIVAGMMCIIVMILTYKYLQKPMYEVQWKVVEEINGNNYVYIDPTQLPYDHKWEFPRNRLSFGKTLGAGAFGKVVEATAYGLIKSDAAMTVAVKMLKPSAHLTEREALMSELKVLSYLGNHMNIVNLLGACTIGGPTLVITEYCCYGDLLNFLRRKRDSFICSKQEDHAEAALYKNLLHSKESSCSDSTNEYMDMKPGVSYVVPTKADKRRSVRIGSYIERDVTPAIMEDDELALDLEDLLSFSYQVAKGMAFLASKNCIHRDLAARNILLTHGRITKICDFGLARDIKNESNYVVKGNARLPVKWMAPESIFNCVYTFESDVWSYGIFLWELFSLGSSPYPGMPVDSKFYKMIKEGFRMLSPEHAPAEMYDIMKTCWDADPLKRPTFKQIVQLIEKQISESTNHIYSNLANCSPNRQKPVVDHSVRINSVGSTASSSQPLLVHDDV

## CN(C(=O)CN1CCOCC1)c1ccc2sc3c(-c4cccc5c(=O)cc(N6CC7CCC(C6)O7)oc45)cccc3c2c1 [NU5455]
  inhibition at 1 µM: 1.3%
